In patent US11584744B2 (UNIVERSITY OF WASHINGTON, priority 2017, dated 2023):
Values joined by “and” are separate entries in the source; they are usually repeats but may differ in a detail not shown here. Equal values may be shown once. Read-outs that look alike come from different tables or passages of the source.

How the values were obtained:
[1] = test system: S. aureus (ATCC 29213); experiment: Neutropenic murine S. aureus thigh infection model; type: in vivo, Staphylococcus aureus; settings: 75 mg/kg orally ×2; for reduction of bacterial load below stasis level: neutropenic mouse
Description: Murine thigh infection model. Animal studies were approved by the Institutional Animal Care and Use Committee at the University of Washington, Seattle. Female specific pathogen free CD1 mice were obtained from Charles River (Wilmington, Mass.) weighing 23-27 grams and allowed at least 3 days to acclimate prior to study. Mice had access to food and water ad libitum. Neutropenia was induced by administering cyclophosphamide monohydrate (Sigma Aldrich C7397; St. Louis, Mo.) via IP injection 4 days (at 150 mg/kg) and 1 day (at 100 mg/kg) prior to infection. Neutropenic status was confirmed by neutrophil count <100 cells/mm^3.
Overnight culture of S. aureus (ATCC strain 29213) was diluted 1:100 in MHB and incubated until reaching mid-log phase (OD600<0.750). The inoculum was prepared by pelleting log-phase culture and re-suspending in sterile dPBS. The culture was adjusted to OD600 of 0.200 and diluted 1:100 in sterile dPBS correlating to an inoculum of ˜5*10^5 CFU/50 μL. The mice were infected by an intramuscular injection of 50 μL in the right posterior thigh while under isoflurane gas anesthesia. At 1 h post infection, one vehicle group was sacrificed for determination of initial inoculum ([…] level of infection). Mice were dosed at 2 and 12 h post-infection with test compounds (below); they received a SC dose of 5 mg/kg ketoprofen at 2 h post-infection for pain management. Mice were sacrificed at 24 h post-infection; the thigh muscle was sterilely removed, weighed, homogenized in 5 mLs dPBS, serially diluted, plated on tryptic soy agar in duplicate, and incubated overnight at 37° C. Colonies were counted to quantify the bacterial load in CFUs per gram of thigh tissue.
Vancomycin was given at 100 mg/kg SC in 100 μL in a 0.9% saline solution. […] Test compounds were administered PO in 200 μL of vehicle containing 60% Phosal 53 MCT (Lipoid, Ludwigshafen Germany), 30% PEG400 (Sigma Aldrich, St. Louis, Mo.), and 10% EtOH (Decon Laboratories, King of Prussia, Pa.).
Efficacy studies in mice: Selected compounds were tested for in vivo efficacy in the neutropenic S. aureus thigh infection model (9). Mice were immunosuppressed with cyclophosphamide then infected in a thigh with 5×10^5 S. aureus (ATCC 29213). Compounds were dosed orally with 75 mg/kg at 2 and 12 h post-infection. At 24 h, thighs were harvested for CFU counts.

[2] = test system: E. coli MB5746 (lpxC, tolC); experiment: microbe, parasite or virus in culture; type: cell-based; settings: Escherichia coli, read-out: MIC MB5746 (lpxC, tolC)
Procedure: (§1) Bacterial strains. Strains with ATCC designations were either obtained directly from the American Type Culture Collection (Manassas, Va.) or were kindly provided by the University of Washington Clinical Microbiology laboratory. Escherichia coli permeability mutants (properties shown in Table 1) were provided as a gift from Dr. Katherine Young at Merck (Rahway, N.J.).
(§2) Susceptibility testing: Minimum inhibitory concentration (MIC) determinations were performed in triplicate in 96-well round bottom microtiter plates (Corning, Corning N.Y.) as described by the Clinical and Laboratory Standards Institute (CLSI). Serial two-fold dilutions of compounds were added to plates in 50 μL volumes. An additional 50 μL of media containing bacterial cells (1×10^6 CFUs/mL) was then added to each well. Maximum DMSO concentrations were 0.5%. Plates were incubated at 37° C. for at least 18 h before reading the susceptibility result by optical absorbance (OD600) using a BioTek ELx800. The lowest concentration causing ≥90% growth inhibition compared to the untreated control was recorded as the MIC (and also corresponded to the visual MIC). MICs were measured at least twice and the higher value (if different) was recorded herein.

[3] = test system: E. coli MB4902 (lpxC); experiment: microbe, parasite or virus in culture; type: cell-based; settings: Escherichia coli, read-out: MIC MB4902 (lpxC)
Procedure: as §1, §2

[4] = test system: E. coli MB5747 (tolC); experiment: microbe, parasite or virus in culture; type: cell-based; settings: Escherichia coli, read-out: MIC MB5747 (tolC)
Procedure: as §1, §2

[5] = Murine pharmacokinetics studies (oral, dried blood spots); type: in vivo, mice; settings: 50 mg/kg single oral dose; for Cmax / AUC(0-t): mouse, whole blood (dried blood spots); for Cmax: po, 50 mg/kg, read-out: Mouse Oral PK DBS: Average Cmax; for AUC(0-t): read-out: Mouse Oral PK DBS: Average AUC(0-24 h) (converted)
Procedure: Murine pharmacokinetics studies. The methods were performed as previously described. Briefly, test compounds were administered to mice by oral gavage (3 mice per compound) followed by tail blood sampling at intervals of 30, 60, 120, 240, 360, 480, and 1440 min. Blood samples were analyzed by extracting dried blood spots in acetonitrile for measurements of compound concentrations by liquid chromatography/tandem mass spectrometry.
Pharmacokinetics studies: Selected compounds were administered to mice in single oral doses at 50 mg/kg and tail blood was sampled at time intervals out to 24 h to assess blood exposure (Table 9).

[6] = molecular target: T1, MetRS (T. brucei) (Trypanosoma brucei brucei, UniProt Q38C91); experiment: MetRS (T. brucei) enzyme inhibition; type: biochemical
T1 sequence (Q38C91 1-773): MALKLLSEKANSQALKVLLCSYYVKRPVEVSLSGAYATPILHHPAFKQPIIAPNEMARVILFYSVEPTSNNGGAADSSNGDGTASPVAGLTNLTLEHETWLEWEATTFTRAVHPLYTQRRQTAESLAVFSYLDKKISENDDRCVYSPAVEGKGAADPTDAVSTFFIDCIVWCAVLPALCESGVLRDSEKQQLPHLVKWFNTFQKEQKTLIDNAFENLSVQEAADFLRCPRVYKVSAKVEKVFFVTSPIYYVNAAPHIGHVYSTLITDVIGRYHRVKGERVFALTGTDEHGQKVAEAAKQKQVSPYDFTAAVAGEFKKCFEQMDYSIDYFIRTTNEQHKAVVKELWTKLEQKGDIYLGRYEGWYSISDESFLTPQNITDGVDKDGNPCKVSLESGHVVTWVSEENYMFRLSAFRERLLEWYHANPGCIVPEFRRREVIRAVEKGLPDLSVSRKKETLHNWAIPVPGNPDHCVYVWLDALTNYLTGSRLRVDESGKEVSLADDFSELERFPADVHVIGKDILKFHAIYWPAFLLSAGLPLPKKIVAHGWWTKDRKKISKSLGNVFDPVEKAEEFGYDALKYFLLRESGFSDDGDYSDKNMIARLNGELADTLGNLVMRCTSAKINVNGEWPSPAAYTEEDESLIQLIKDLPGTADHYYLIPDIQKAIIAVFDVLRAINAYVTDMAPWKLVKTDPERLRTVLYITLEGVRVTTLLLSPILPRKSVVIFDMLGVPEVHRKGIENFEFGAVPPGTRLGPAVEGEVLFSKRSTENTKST

[7] = test system: T. cruzi; experiment: T. cruzi growth inhibition; type: cell-based, Trypanosoma cruzi; settings: read-out: (E) T. cruzi EC50

SMILES	efficacy in thigh infection model [1]	reduction of bacterial load below stasis level [1]	MIC [2] [µg/mL]	MIC [3] [µg/mL]	MIC [4] [µg/mL]	Cmax [5] [ng/mL]	AUC(0-t) [5] [ng·h/mL]	IC50 [6] [nM]	EC50 ([7]; Trypanosoma cruzi) [nM]	EC50 [7]	Mouse Oral PK DBS: Average Cmax [5] [µg/mL]
Fc1ccc2nc(NCCCN[C@@H]3CCNc4c(Cl)cc(Cl)cc43)[nH]c2n1 [Compound 1717, (4R)-6,8-dichloro—N-[3-({5-fluoro-3H-imidazo[4,5-b]pyridin-2-yl}amino)propyl]-1,2,3,4-tetrahydroquinolin-4-amine, reference compound]	significant reduction of bacterial load below the stasis level	approximately 2 log	> 20	> 20	> 20	~1500	15700	–	–	–	–
CCn1c(Cc2ccc(OC)cc2Cl)cn(Cc2nc3nc(Cl)ccc3[nH]2)c1=O [Compound 2093, 1-({5-chloro-1H-imidazo[4,5-b]pyridin-2-yl}methyl)-4-[(2-chloro-4-methoxyphenyl)methyl]-3-ethyl-2,3-dihydro-1H-imidazol-2-one]	weaker activity than the other MetRS inhibitors evaluated	–	> 20	> 20	> 20	7570 ± 2290	20400	< 40	8.28	5.81 nM	–
CCn1c(Cc2ccc(Cl)cc2Cl)cn(Cc2nc3nc(F)ccc3[nH]2)c1=O [Compound 2062, 4-[(2,4-dichlorophenyl)methyl]-3-ethyl-1-({5-fluoro-1H-imidazo[4,5-b]pyridin-2-yl}methyl)-2,3-dihydro-1H-imidazol-2-one]	–	–	–	–	–	–	–	< 40	85.2	98.9 nM and 90.8 nM	–
COc1cc(Cl)c(-c2cccc3nc(Cc4nc5nc(Cl)ccc5[nH]4)cn23)cc1OC [Compound 2144, 2-({5-chloro-1H-imidazo[4,5-b]pyridin-2-yl}methyl)-5-(2-chloro-4,5-dimethoxyphenyl)imidazo[1,2-a]pyridine]	significant reduction of bacterial load below the stasis level	approximately 2 log	> 20	> 20	> 20	~9000	63200	< 40	13.5	7.79 nM	8.95 ± 1.38
CCn1c(Cc2ccc(OC)cc2Cl)cn(Cc2nc3nc(F)ccc3[nH]2)c1=O [Compound 2114, 4-[(2-chloro-4-methoxyphenyl)methyl]-3-ethyl-1-({5-fluoro-1H-imidazo[4,5-b]pyridin-2-yl}methyl)-2,3-dihydro-1H-imidazol-2-one]	–	–	–	–	–	5450 ± 750	15000	< 40	25.9	23.2 nM	–
CC(=O)NC[C@H]1CN(c2ccc(N3CCOCC3)c(F)c2)C(=O)O1 [LNZ, linezolid]	–	–	–	–	–	26500 ± 15200	94400	–	–	–	–
